Read-outs that look alike come from different tables or passages of the source.
Test system: 280 human cancer cell lines
Assay: OncoPanel cell proliferation assay (10-day)
Type: cell-based
Settings: Homo sapiens; for IC50: read-out: Cell Count IC50; for EC50: read-out: Cell Count EC50; for GI50: read-out: Cell Count GI50
[1] = SJRH30, SJRH30, Soft Tissue - Sarcoma
[2] = SJSA-1, SJSA1, Soft Tissue - Osteosarcoma
[3] = SK-LMS-1, SK-LMS-1, Soft Tissue - Sarcoma
[4] = SK-MEL3, SK-MEL-3, Skin (Melanoma)
[5] = SK-MEL-1, SK-MEL-1, Skin (Melanoma)
[6] = SK-MEL-28, SK-MEL-28, Skin (Melanoma)
[7] = SK-OV-3, SKOV3, Female GU - Ovary
[8] = SK-UT-1, SK-UT-1, Soft Tissue - Sarcoma
[9] = SW579, SW579, Endocrine - Thyroid
[10] = SW684, SW684, Soft Tissue - Sarcoma

CC(C)=CCC[C@H](C)[C@@H]1CC[C@@H](C)c2c1cc(C)c(O)c2O [Compound 4, 7,8-dihydroxyserrulat-14-ene]
IC50 (SCaBER, Bladder): 16.9 µM
EC50 (SH-4, Skin (Melanoma)): 11.6 µM
GI50 (SH-4, Skin (Melanoma)): 11.5 µM
IC50 (SH-4, Skin (Melanoma)): 11.6 µM
EC50 (SHP77, SHP-77, Lung - SCLC): 6.83 µM
GI50 (SHP77, SHP-77, Lung - SCLC): 6.75 µM
IC50 (SHP77, SHP-77, Lung - SCLC): 6.83 µM
EC50 [1]: 3.68 µM
GI50 [1]: 3.68 µM
IC50 [1]: 3.68 µM
EC50 [2]: 7.45 µM
GI50 [2]: 7.45 µM
IC50 [2]: 7.45 µM
EC50 (SK-BR-3, SK-BR-3, Breast): 10.3 µM
GI50 (SK-BR-3, SK-BR-3, Breast): 9.97 µM
IC50 (SK-BR-3, SK-BR-3, Breast): 10.3 µM
EC50 [3]: 9.04 µM
GI50 [3]: 8.98 µM
IC50 [3]: 9.04 µM
EC50 [4]: > 30 µM
GI50 [4]: > 30 µM
IC50 [4]: > 30 µM
EC50 [5]: > 30 µM
GI50 [5]: > 30 µM
IC50 [5]: > 30 µM
EC50 [6]: 11.2 µM
GI50 [6]: 11.1 µM
IC50 [6]: 11.2 µM
EC50 (SK-MES-1, SKMES1, Lung - NSCLC): 11.6 µM
GI50 (SK-MES-1, SKMES1, Lung - NSCLC): 11.5 µM
IC50 (SK-MES-1, SKMES1, Lung - NSCLC): 11.6 µM
EC50 (SK-N-AS, CNS - Neuroblastoma): 5.86 µM
GI50 (SK-N-AS, CNS - Neuroblastoma): 5.75 µM
IC50 (SK-N-AS, CNS - Neuroblastoma): 5.86 µM
EC50 (SK-N-DZ, CNS - Neuroblastoma): 11.9 µM
GI50 (SK-N-DZ, CNS - Neuroblastoma): 11.5 µM
IC50 (SK-N-DZ, CNS - Neuroblastoma): 11.9 µM
EC50 (SK-N-FI, CNS - Neuroblastoma): 21.5 µM
GI50 (SK-N-FI, CNS - Neuroblastoma): 20.6 µM
IC50 (SK-N-FI, CNS - Neuroblastoma): 21.5 µM
EC50 [7]: 8.43 µM
GI50 [7]: 8.33 µM
IC50 [7]: 8.43 µM
EC50 (SK-PN-DW, Stomach): 4.91 µM
GI50 (SK-PN-DW, Stomach): 4.88 µM
IC50 (SK-PN-DW, Stomach): 4.91 µM
EC50 [8]: 5.49 µM
GI50 [8]: 5.46 µM
IC50 [8]: 5.49 µM
EC50 (SKO-007, SKO-007, Myeloma): 4.66 µM
GI50 (SKO-007, SKO-007, Myeloma): 4.55 µM
IC50 (SKO-007, SKO-007, Myeloma): 4.71 µM
EC50 (SNB-19, SNB-19, CNS - Glioma): 13 µM
GI50 (SNB-19, SNB-19, CNS - Glioma): 12.9 µM
IC50 (SNB-19, SNB-19, CNS - Glioma): 13 µM
EC50 (SNU1, SNU-1, Stomach): 6.99 µM
GI50 (SNU1, SNU-1, Stomach): 6.98 µM
IC50 (SNU1, SNU-1, Stomach): 6.99 µM
EC50 (SNU-5, SNU-5, Stomach): 14.4 µM
GI50 (SNU-5, SNU-5, Stomach): 14.2 µM
IC50 (SNU-5, SNU-5, Stomach): 14.4 µM
EC50 (SNU-16, SNU-16, Stomach): 11 µM
GI50 (SNU-16, SNU-16, Stomach): 11 µM
IC50 (SNU-16, SNU-16, Stomach): 11 µM
EC50 (SNU-423, SNU-423, Liver): 9.3 µM
GI50 (SNU-423, SNU-423, Liver): 9.28 µM
IC50 (SNU-423, SNU-423, Liver): 9.31 µM
EC50 (SR, Lymphoma): 4.39 µM
GI50 (SR, Lymphoma): 4.39 µM
IC50 (SR, Lymphoma): 4.39 µM
EC50 (ST486, ST486, Lymphoma): 2.66 µM
GI50 (ST486, ST486, Lymphoma): 2.65 µM
IC50 (ST486, ST486, Lymphoma): 2.66 µM
EC50 (SU-DHL10, SU-DHL-10, Lymphoma): 7.68 µM
GI50 (SU-DHL10, SU-DHL-10, Lymphoma): 7.67 µM
IC50 (SU-DHL10, SU-DHL-10, Lymphoma): 7.68 µM
EC50 (SU-DHL-4, SU-DHL-4, Lymphoma): 5.74 µM
GI50 (SU-DHL-4, SU-DHL-4, Lymphoma): 5.74 µM
IC50 (SU-DHL-4, SU-DHL-4, Lymphoma): 5.74 µM
EC50 (SU-DHL-5, SU-DHL-5, Lymphoma): 3.8 µM
GI50 (SU-DHL-5, SU-DHL-5, Lymphoma): 3.8 µM
IC50 (SU-DHL-5, SU-DHL-5, Lymphoma): 3.8 µM
EC50 (SU-DHL-8, SU-DHL-8, Lymphoma): 3.9 µM
GI50 (SU-DHL-8, SU-DHL-8, Lymphoma): 3.9 µM
IC50 (SU-DHL-8, SU-DHL-8, Lymphoma): 3.9 µM
EC50 (SU.86.86, SU.86.86, Pancreas): > 30 µM
GI50 (SU.86.86, SU.86.86, Pancreas): > 30 µM
IC50 (SU.86.86, SU.86.86, Pancreas): > 30 µM
EC50 (SUP-T1, SUP-T1, Lymphoma): 6.51 µM
GI50 (SUP-T1, SUP-T1, Lymphoma): 6.49 µM
IC50 (SUP-T1, SUP-T1, Lymphoma): 6.51 µM
EC50 (SW48, SW48, Colon): 13 µM
GI50 (SW48, SW48, Colon): 13 µM
IC50 (SW48, SW48, Colon): 13 µM
EC50 [9]: 11 µM
GI50 [9]: 11 µM
IC50 [9]: 11 µM
EC50 [10]: > 30 µM
GI50 [10]: > 30 µM
IC50 [10]: > 30 µM
EC50 (SW837, SW837, Colon): 18.9 µM

— patent publication US11331299B2, “Medicinal use of serrulatane diterpenes” (The University of Sydney, priority 2016, dated 2022)
